Measured values reported in the supplement of paper PMC3068080.

Legend:
TGFBR2 mRNA = assay: remaining TGFBR2 mRNA relative to control siRNA (off-target knock-down) (fraction of control); quantification method: branched DNA; higher = less knock-down
Method: (§1)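 Screen-hit siRNA duplexes (19-mer plus 3' dTdT overhang) were transiently transfected into HaCaT cells in 12-well plates. After 48 h, TGFBR1 and TGFBR2 mRNA were quantified by branched DNA assay (QuantiGene, normalised to HPRT1) or by SYBR qPCR (normalised to HPRT1/SMAD4). Values are the remaining mRNA relative to control-siRNA-transfected cells; 1-2 biological replicates.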

TGFBR1 mRNA = assay: remaining TGFBR1 mRNA relative to control siRNA (off-target knock-down) (fraction of control); quantification method: branched DNA; higher = less knock-down
Method: as §1

Row | Sequence | remaining TGFBR2 mRNA (TGFBR2 mRNA) | remaining TGFBR1 mRNA (TGFBR1 mRNA)
1 | AGGCUAUAAGCUCGCCUACTT | 0.25 | 0.84
2 | AUGUUCCGCCUGCUUUUGCTT | 0.38 | 1.19
3 | UGUACUUCUCCUUGGAGAATT | 0.64 | 0.8
4 | UAACGUGUGUAUGUCUGGCTT | 0.69 | 0.3
5 | AUAUUCCGUAAAACGAACATT | 0.38 | 0.77
6 | UUGCAAGCCCAGAUCAGACTT | 0.74 | 0.92
7 | AUCCUGAGAUGUCAGCAGCTT | 0.4 | 1.42
8 | AAUCCUCUGGUGACUGCUGTT | 0.54 | 1.13
9 | AGCCCAUGCCCUUCACAAUTT | 0.89 | 0.71
10 | AAAAGGCCUUCAAGCUGUUTT | 0.41 | 0.56
11 | CCUCAAUUGACACUUGCCUTT | 0.8 | 1
12 | UUCCUUGGCUGUGAUGCUCTT | 0.11 | 0.93
13 | UGCAUUGGCUCCCACUUCATT | 0.33 | 0.26
14 | UAGCAUUCAUUUUCCGUGGTT | 0.27 | 0.72
15 | AUGGACAUUUACGGUAGUGTT | 0.46 | 0.44
16 | AUAUAUACUGCUAUGGUCATT | 0.39 | 0.39
17 | AUUGAAGCCACCAUUCUCCTT | 0.94 | 0.23
18 | AAUGGGAGACAAGCCAAUUTT | 0.25 | 0.77
19 | UUUGGCUUCUUCUAGUGACTT | 0.51 | 0.91
20 | UCCAUGGAUGCAGAAGUCCTT | 0.56 | 0.96
21 | AAUGCUGUUGGCAGCCAGATT | 0.11 | 0.71
22 | UUAUUGGGCAAAAUCCGGGTT | 0.72 | 0.88
23 | UGCGUUUACGGUUCACACGTT | 0.6 | 0.69
24 | UUUGUUGUCCAGUGGUCCGTT | 0.43 | 1.13
25 | ACUUUGGUUUCGGUGCAGCTT | 0.23 | 0.63

Row | Sequence | remaining TGFBR2 mRNA (TGFBR2 mRNA) | remaining TGFBR1 mRNA (TGFBR1 mRNA)
26 | ACCUUACCUUGUCGACGAATT | 0.56 | 0.7
27 | AUUAUGUCCUCUACGAUUATT | 0.49 | 0.76
28 | UUCAAUAGUUGUCAGAGGCTT | 1.62 | 1.35
29 | CUUGACUUCUGGGGUCCACTT | 0.94 | 0.92
30 | UCAACAAGCUAAGUCUGCCTT | 0.72 | 1.1
31 | UGUGCUUGGUCACGGACACTT | 0.27 | 1.86
32 | AUCCUUGGCCAGUUUGGUCTT | 0.15 | 1.19
33 | UUUCCUGGUUGGUGAGCAGTT | 0.36 | 1.29
34 | AUGGUGAGAAGACACAGGCTT | 0.54 | 1.33
35 | ACCAUGUCGGCCUUUUCAATT | 0.5 | 0.35
36 | AUGGUGUGGCUCGUCGUGCTT | 0.46 | 0.45
37 | GAAGGUGUGAGUGAGGUCATT | 1.17 | 0.19
38 | AUCUACACACACGCAAGAATT | 0.73 | 1.48
39 | AGCACUGCGAGUACUGUGUTT | 1.08 | 0.33
40 | CAAACAGCGGUUGGAAUAATT | 0.33 | 0.81
41 | AUAUGUAAGACCUUCCUUCTT | 0.25 | 0.38
42 | UUGUAAAAACCAGGCGACCTT | 0.33 | 1.48
43 | AUAAGCAGUAAGUAGCUGGTT | 0.99 | 0.5
44 | UACAUGAUGUAAACGAUAATT | 0.54 | 0.44
45 | UUUUCCUGGCCUCUGAUCCTT | 0.15 | 0.99
46 | UUCUUCUGGUCCAUACUCATT | 0.66 | 0.45
47 | CUCCUUGGCACACUUCUCATT | 0.34 | 0.93
48 | AGCUUGUGCCAAGUGCCAUTT | 0.33 | 0.92
49 | UUCGUCGAUGGCUUCGUCUTT | 0.65 | 0.67
50 | AAUCAGGGCGGAGUAGGUGTT | 0.91 | 1.21
